Laboratory results taken from PMC6389962 (Nature Communications, 2019).

What was measured:
in vitro = settings: mouse, plasma
How it was run: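 Oligomer at 5 µM final in mouse plasma/PBS pH 7.4 (1:1) at 37 °C, with a plasma-free control defining t = 0. Aliquots quenched in cold acetonitrile at 20 and 60 min; remaining oligomer quantified by LC-MS extracted-ion peak area.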

[1] = Pharmacokinetic evaluation in mice, i.v. (first study, peer review file Table 3); settings: in vivo, normal C57BL/6J mice, male, n = 3, 25 μg/mouse (~250 nmol/kg) intravenous, first PK study
Experimental: Our current understanding is that […]
ways (See Figure below for reviewing only).
(1 picture or pasted object on this page, not shown here)
PK mice Table 3 | Pharmacokinetic evaluation in mice by i.v.
*** (m L/m i n/ k g) (mL/kg) (m in)
Formulation: 2 mg/mL in PB S 1X.
An additional table has been prepared (Table 3) and the following text was added:
“A pharmacokinetic study was also conducted in mice to access the pharmacologic […]
The manuscript by Fremaux et al. describes the synthesis and biological evaluation of α-pept ide- […]
In the design of those analogues, four […]
peptide chemistry and medicinal chemistry.
The authors should, however, revise the manuscript for typographic and gramatical errors. As an example, the following sentence should be revised:
The manuscript was revised for typographic and grammatical errors and the sentence above was […]

Work on `CC[C@H](C)[C@H](NC(=O)[C@H](Cc1ccccc1)NC(=O)[C@H](CCC(=O)O)NC(=O)[C@H](CCCCN)NC(=O)[C@H](C)NC(=O)[C@H](C)NC(=O)[C@H](CCC(N)=O)NC(=O)CNC(=O)[C@H](CCC(=O)O)NC(=O)[C@H](CC(C)C)NC(=O)[C@H](Cc1ccc(O)cc1)NC(=O)[C@H](CO)NC(=O)[C@H](CO)NC(=O)[C@@H](NC(=O)[C@H](CC(=O)O)NC(=O)[C@H](CO)NC(=O)[C@@H](NC(=O)[C@H](Cc1ccccc1)NC(=O)[C@@H](NC(=O)CNC(=O)[C@H](CCC(=O)O)NC(=O)CNC(=O)[C@@H](N)Cc1c[nH]cn1)[C@@H](C)O)[C@@H](C)O)C(C)C)C(=O)N[C@@H](C)C(=O)N[C@@H](Cc1c[nH]c2ccccc12)C(=O)N[C@@H](CC(C)C)C(=O)N[C@H](C(=O)N[C@@H](CCCCN)C(=O)NCC(=O)N[C@@H](CCCNC(=N)N)C(=O)NCC(N)=O)C(C)C` [compound 1, GLP-1-G^2 (GG2)] yielded a half-life (in vitro; pH 7.4) of 16 min, a remaining at 20 min (in vitro; pH 7.4, % remaining analogue) of 34.8% and a remaining at 1 h (in vitro; pH 7.4, % remaining analogue) of 23.9%. For the same molecule, the clearance ([1]; 2 mg/mL in PBS 1X) was 448 mL/min/kg, the half-life [1] was 7 min and the Vd ([1]; read-out: Vz) was 4.48 L/kg.
